Measured values from US8304447B2, “2-acylaminopropoanol-type glucosylceramide synthase inhibitors” (Genzyme Corporation, priority 2007, dated 2012).

Test system: GM3
Test: GM3 Elisa assay
Type: cell-based
Details: Table 3 (IC 50 Values); B16-FO cells; read-out: IC50_uM_Mean
In short: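 Cellular GM3 ELISA: fixed cells probed with monoclonal anti-GM3 (NeuAc), HRP-conjugated anti-IgM and fluorogenic Quantablu substrate, read at Ex 325/Em 420. Cells were B16-FO, treated 2 days after a 6 h attachment on collagen-coated wells.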

Row | IC50 [nM] | Compound
1 | 3000 to 10000 | COc1ccc(OCCC(=O)N[C@H](CN2CCCC2(C)C)[C@H](O)c2ccc3c(c2)OCCO3)cc1 [Compound 551]
2 | 1000 to 3000 | COc1ccc(C(=O)CCCCCC(=O)N[C@H](CN2CCCC2(C)C)[C@H](O)c2ccc3c(c2)OCCO3)cc1 [Compound 552]
3 | 3000 to 10000 | CCCCCCCC(=O)N[C@H](CN1CCCC1(C)C)[C@H](O)c1ccc2c(c1)OCCO2 [Compound 553]
4 | 3000 to 10000 | O=C(CCCCOC1CCOCC1)N[C@H](CN1CCCC1)[C@H](O)c1ccc2c(c1)OCCO2 [Compound 554]
5 | 100 to 1000 | COc1ccc(S(=O)(=O)CCCCCC(=O)N[C@H](CN2CCCC2)[C@H](O)c2ccc3c(c2)OCCO3)cc1 [Compound 555]
6 | 3000 to 10000 | O=C(CCCCC(=O)C1CCOCC1)N[C@H](CN1CCCC1)[C@H](O)c1ccc2c(c1)OCCO2 [Compound 556]
7 | 3000 to 10000 | O=C(CCCCS(=O)(=O)C1CCCCC1)N[C@H](CN1CCCC1)[C@H](O)c1ccc2c(c1)OCCO2 [Compound 557]
8 | 1000 to 3000 | O=C(CCCCC(=O)C1CCC(F)(F)CC1)N[C@H](CN1CCCC1)[C@H](O)c1ccc2c(c1)OCCO2 [Compound 558]
9 | 100 to 1000 | O=C(CCCCCC1CCOCC1)N[C@H](CN1CCCC1)[C@H](O)c1ccc2c(c1)OCCO2 [Compound 559]
10 | 100 to 1000 | O=C(CCCCS(=O)(=O)C12CC3CC(CC(C3)C1)C2)N[C@H](CN1CCCC1)[C@H](O)c1ccc2c(c1)OCCO2 [Compound 560]
11 | 3000 to 10000 | O=C(CCCS(=O)(=O)C1CCCCC1)N[C@H](CN1CCCC1)[C@H](O)c1ccc2c(c1)OCCO2 [Compound 561]
12 | 100 to 1000 | O=C(CCCCCS(=O)(=O)C1CCCCC1)N[C@H](CN1CCCC1)[C@H](O)c1ccc2c(c1)OCCO2 [Compound 562]
13 | 3000 to 10000 | CCCCCCCC(=O)N[C@H](Cc1ncc[nH]1)[C@H](O)c1ccc2c(c1)OCCO2 [Compound 563]
14 | 100 to 1000 | COc1ccc(S(=O)(=O)CCCCCC(=O)N[C@H](CN2CC[C@@H](F)C2)[C@H](O)c2ccc3c(c2)OCCO3)cc1 [Compound 564]
15 | ≤ 100 | O=C(CCCCCC(=O)c1ccc(F)cc1)N[C@H](CN1CC[C@@H](F)C1)[C@H](O)c1ccc2c(c1)OCCO2 [Compound 565]
16 | ≤ 100 | O=C(CCCOc1ccc(F)cc1)N[C@H](CN1CCCC1)[C@H](O)c1ccc2c(c1)OCCO2 [Compound 566]
17 | 100 to 1000 | O=C(CCCOc1ccc(F)cc1)N[C@H](CN1CC[C@@H](F)C1)[C@H](O)c1ccc2c(c1)OCCO2 [Compound 567]
18 | 100 to 1000 | O=C(CCOc1ccc(F)cc1)N[C@H](CN1CC[C@@H](F)C1)[C@H](O)c1ccc2c(c1)OCCO2 [Compound 568]
19 | 3000 to 10000 | Cc1nccn1C[C@@H](NC(=O)CCCCCC(=O)c1ccc(F)cc1)C(O)c1ccc2c(c1)OCCO2 (stereo partly drawn) [Compound 569]
20 | 3000 to 10000 | Cc1nccn1C[C@@H](NC(=O)CCCOc1ccc(F)cc1)[C@H](O)c1ccc2c(c1)OCCO2 [Compound 570]
21 | 3000 to 10000 | CCCCCCCC(=O)N[C@H](Cn1ccnc1C)[C@H](O)c1ccc2c(c1)OCCO2 [Compound 571]
22 | 100 to 1000 | O=C(CCCCS(=O)(=O)C1CCCCC1)N[C@H](CN1CC[C@@H](F)C1)[C@H](O)c1ccc(OCc2ccccc2)cc1 [Compound 572]
23 | 100 to 1000 | O=C(CCCCC(=O)C1CCC(F)(F)CC1)N[C@H](CN1CC[C@@H](F)C1)[C@H](O)c1ccc(OCc2ccccc2)cc1 [Compound 573]
24 | 100 to 1000 | O=C(CCCCCC1CCOCC1)N[C@H](CN1CC[C@@H](F)C1)C(O)c1cccc(OCc2ccccc2)c1 (stereo partly drawn) [Compound 574]
25 | 100 to 1000 | O=C(CCCCOC1CCOCC1)N[C@H](CN1CC[C@@H](F)C1)[C@H](O)c1ccc(OCc2ccccc2)cc1 [Compound 575]
26 | 100 to 1000 | O=C(CCCCC(=O)C1CCOCC1)N[C@H](CN1CC[C@@H](F)C1)[C@H](O)c1ccc(OCc2ccccc2)cc1 [Compound 576]
27 | 100 to 1000 | O=C(CCCS(=O)(=O)C1CCCCC1)N[C@H](CN1CC[C@@H](F)C1)[C@H](O)c1ccc(OCc2ccccc2)cc1 [Compound 577]
